Data published in ChEMBL document CHEMBL3885861, “Open TG-GATES”.

Species: Rattus norvegicus
Assay: Open TG-GATES - Regimen: Daily Repeat
Type: toxicity, organism-based, Sprague-Dawley
Design: regimen Daily Repeat, gender Male, age 6 weeks
Settings: in vivo, po, 5 mg/kg, […], route gavage, dose level Low; for KIDNEY_L / KIDNEY_R / KIDNEY_TOTAL: tissue Kidney; for LIVER: tissue Liver; for A/G / ALP / ALT / AST / BUN / CRE / Ca / Cl / DBIL / GLC / IP / K / LDH / Na / PL / RALB / TBIL / TC / TG / TP / gamma-GTP: tissue Plasma

`CC1=C(CC(=O)O)c2cc(F)ccc2/C1=C\c1ccc([S+](C)[O-])cc1` (stereo unspecified) was tested, and the Lym (tissue Blood, time 28 day) was 79%, the MCH (tissue Blood, time 28 day) was 18.6 pg and the MCHC (tissue Blood, time 28 day) was 33.1%. The MCV (tissue Blood, time 28 day) was 56.4 fL, the Mono (tissue Blood, time 28 day) was 2% and the Neu (tissue Blood, time 28 day) was 17.4%. It also gave a PT (tissue Blood, time 28 day) of 12.8 s, a Plat (tissue Blood, time 28 day) of 112.3 x10_4/uL and an RBC (tissue Blood, time 28 day) of 826.8 x10_4/ul. The Ret (tissue Blood, time 28 day) was 2.6%, the WBC (tissue Blood, time 28 day) was 97.8 x10_2/uL and the KIDNEY_L (time 7 day) was 1.2 g. For the same compound, the KIDNEY_R (time 7 day) was 1.2 g, the KIDNEY_TOTAL (time 7 day) was 2.3 g and the KIDNEY_L (time 14 day) was 1.3 g. It also gave a KIDNEY_R (time 14 day) of 1.3 g, a KIDNEY_TOTAL (time 14 day) of 2.5 g and a KIDNEY_L (time 28 day) of 1.4 g. The KIDNEY_R (time 28 day) was 1.4 g, the KIDNEY_TOTAL (time 28 day) was 2.8 g and the LIVER (time 7 day) was 13.1 g. The LIVER (time 14 day) was 14.3 g, the LIVER (time 28 day) was 16.6 g and the A/G (time 7 day) was 0.9. It also gave an ALP (time 7 day) of 1462.4 IU/L, an ALT (time 7 day) of 37.6 IU/L and an AST (time 7 day) of 67.4 IU/L. It also gave a BUN (time 7 day) of 17.6 mg/dL, a CRE (time 7 day) of 0.2 mg/dL and a Ca (time 7 day) of 11 mg/dL. For the same compound, the Cl (time 7 day) was 104.2 meq/L, the DBIL (time 7 day) was 0.012 mg/dL and the GLC (time 7 day) was 183.6 mg/dL. The IP (time 7 day) was 6.4 mg/dL, the K (time 7 day) was 4.2 meq/L and the LDH (time 7 day) was 98 IU/L. For the same compound, the Na (time 7 day) was 140.6 meq/L, the PL (time 7 day) was 156.6 mg/dL and the RALB (time 7 day) was 2.7 g/dL. For the same compound, the TBIL (time 7 day) was 0.022 mg/dL, the TC (time 7 day) was 78.8 mg/dL and the TG (time 7 day) was 122.4 mg/dL. The TP (time 7 day) was 5.8 g/dL, the gamma-GTP (time 7 day) was 1 IU/L and the A/G (time 14 day) was 0.9. The ALP (time 14 day) was 1448 IU/L, the ALT (time 14 day) was 40 IU/L and the AST (time 14 day) was 65.6 IU/L. It also gave a BUN (time 14 day) of 16.4 mg/dL, a CRE (time 14 day) of 0.2 mg/dL and a Ca (time 14 day) of 11 mg/dL. It also gave a Cl (time 14 day) of 105.4 meq/L, a DBIL (time 14 day) of 0.01 mg/dL and a GLC (time 14 day) of 177.2 mg/dL. For the same compound, the IP (time 14 day) was 6.2 mg/dL, the K (time 14 day) was 3.6 meq/L and the LDH (time 14 day) was 62.4 IU/L. The Na (time 14 day) was 143 meq/L, the PL (time 14 day) was 163 mg/dL and the RALB (time 14 day) was 2.8 g/dL. The TBIL (time 14 day) was 0.044 mg/dL, the TC (time 14 day) was 74.6 mg/dL and the TG (time 14 day) was 153.8 mg/dL. It also gave a TP (time 14 day) of 6 g/dL, a gamma-GTP (time 14 day) of 1 IU/L and an A/G (time 28 day) of 0.8. It also gave an ALP (time 28 day) of 1234.6 IU/L, an ALT (time 28 day) of 34.4 IU/L and an AST (time 28 day) of 63.8 IU/L. The BUN (time 28 day) was 17.4 mg/dL, the CRE (time 28 day) was 0.3 mg/dL and the Ca (time 28 day) was 10.6 mg/dL. The Cl (time 28 day) was 103.8 meq/L, the DBIL (time 28 day) was 0.014 mg/dL and the GLC (time 28 day) was 187 mg/dL. The IP (time 28 day) was 6.4 mg/dL, the K (time 28 day) was 3.6 meq/L and the LDH (time 28 day) was 72.8 IU/L. The Na (time 28 day) was 142.8 meq/L, the PL (time 28 day) was 164.8 mg/dL and the RALB (time 28 day) was 2.8 g/dL. The TBIL (time 28 day) was 0.08 mg/dL, the TC (time 28 day) was 77.8 mg/dL and the TG (time 28 day) was 195 mg/dL. For the same compound, the TP (time 28 day) was 6.4 g/dL and the gamma-GTP (time 28 day) was 1 IU/L.
